Read-outs that look alike come from different tables or passages of the source.
How the values were obtained:
NF-κB = assay: inhibition of NF-κB activation in NF-κB-bla THP-1 cells after LPS stimulation; format: cell-based, human
Text: Inhibition of NF-κB in vitro. […] Activation of NF-κB increases expression of a number of genes that mediate inflammation. This protocol used human THP-1 cells, which are human mononuclear blood cells with a monocyte phenotype. The cell line, referred to as NF-κB-bla THP-1, contained a β-lactamase reporter gene under the control of the NF-kB response element (Invitrogen, CellSensor™, product No. K1176). In this cell line, the β-lactamase reporter gene is stably integrated in the THP-1 cells. This cell line was used to detect agonists or antagonists of the NF-κB signaling pathway. These NF-κB-bla THP-1 cells respond to the presence of tumor necrosis factor alpha (TNFα) or bacterial lipopolysaccharide (LPS) by increased expression of the β-lactamase reporter gene. The level of β-lactamase enzyme activity was measured by fluorescence resonance energy transfer ratiometric detection. TNFα and LPS are both potent inflammation-inducing agents that activate NF-κB in THP1 cells. In this assay, compounds that decrease NF-κB activity, and thus β-lactamase, in the presence of TNFα or LPS are exerting an anti-inflammation activity.
The NF-κB-bla THP-1 cells were maintained by passaging or feeding as needed. […] The cells were plated at 20,000 cells/well in a 384-well Black-wall, clear bottom assay plates (Costar#3712-TC low fluorescence background plates) approximately 24 hours before adding either TNFα at 10 ng/mL or LPS at 0.2 ng/mL to activate NF-κB.
The assays were usually conducted 2-4 times for each compound and the values shown below are averages for each compound.

[1] = test system: carrageenan-λ induced pleurisy; assay: carrageenan-λ induced lung (pleural cavity) inflammation; format: in vivo, CD1 male mice; conditions: exudate 4 h after
Text: Treatment of lung inflammation. Three compounds, 3β,16α-dihydroxy-17-oxoandrostane, 3α,16β,17β-trihydroxyandrostane and 3α,16α,17α-trihydroxyandrostane were used to treat inflammation in mice essentially as described (D. Auci et al., Ann. New York Acad. Sci. 1051:730-742 2005). Five to 8 week old CD1 male mice (Charles River, Calco, Italy) were used for the study. The animals were housed in a controlled environment and provided with standard rodent chow and water. Animal care was in compliance with applicable regulations on protection of animals. Mice were allocated into one of the following groups: (1) mice treated with 2% carrageenan-k in saline (carrageenan-λ treated control group), (2) mice treated with 0.1 mg, 0.01 mg or 0.001 mg 3β,16α-dihydroxy-17-oxoandrostane by subcutaneous (s.c.) injection 24 h and 1 h before carrageenan-λ administration, (3) mice treated with 0.1 mg, 0.01 mg or 0.001 mg of 3α,16α,17α-trihydroxyandrostane by s.c. injection 24 and 1 h before carrageenan; (4) mice treated with 0.1 mg, 0.01 mg or 0.001 mg […],16β,17β-trihydroxyandrostane by s.c. injection 24 h and 1 h before carrageenan-λ administration; (5) mice treated with vehicle (0.1% carboxymethylcellulose, 0.9% saline, 2% tween 80, 0.05% phenol) s.c. 24 h and 1 h before carrageenan-λ administration; (6) mice treated with rabbit anti-mouse polyclonal anti-TNF-α antibody (200 μg) given as an intraperitoneal bolus 24 h and 1 h before carrageenan-λ administration (positive control group); and (7) sham-operated mice that were not treated with carrageenan-λ. Each group consisted of 10 mice. All treatments were given in a final volume of 100 μL. Lung (pleural cavity) inflammation was induced as follows. The mice were anaesthetised with isoflurane and a skin incision was made at the level of the left sixth intercostal space. The underlying muscle was dissected and either 0.1 mL saline (control) or 0.1 mL saline containing 2% λ-carrageenan was injected into the pleural cavity. The carrageenan-λ is a potent inducer of inflammation, which is manifested in this protocol by accumulation of fluid and neutrophils in the pleural cavity. The incision was closed with a suture and the animals were allowed to recover.
At 4 h after the injection of carrageenan-λ, the animals were euthanized by exposure to CO2. The chest was carefully opened and the pleural cavity rinsed with 1 mL of saline solution containing heparin (5 U/mL) and indomethacin (10 μg/mL). The exudate and washing solution were removed by aspiration and the total volume measured. Any exudate contaminated with blood was discarded. The amount of exudate was calculated by subtracting the injected 1 mL volume from the total pleural cavity volume that was recovered. The neutrophils in the exudate were suspended in phosphate-buffer saline and counted with an optical microscope in a Burker's chamber after Trypan Blue staining. The results were analysed by one-way ANOVA followed by a Bonferroni post-hoc test for multiple comparisons. A p-value less than 0.05 was considered significant. For statistical analysis each group was compared to the control group of mice that were challenged with carrageenan-k and received no other treatment.
The table below describes the number of neutrophils from the treated animal groups relative to untreated control animals that were exposed to carrageenan-λ, but not treated with anything else (negative control group). The neutrophil number for the negative control group was set at 100% and other groups were compared to this.

EAE = assay: PLP-induced EAE, treatment from clinical onset; format: in vivo, female SJL mice; conditions: for course of EAE compared to vehicle-treated mice / mean cumulative score, treatment period: 0.1 mg q.d. po from clinical onset; for mean cumulative score, treatment period: day 1 to 30; for mean cumulative score, follow-up period: day 31 to day 54, post treatment
Protocol: The protocol for conducting the EAE animal model was described in (D. Auci et. al., Ann. NY. Acad. Sci. USA, 1051:730-42, 2005). Female SJL mice (6-8 week old, average body weight of 25 g) obtained from Charles-River were kept under standard laboratory conditions (non specific pathogen germ free) with ad libitum food and water and were allowed to adapt one week to their environment before commencing the study. […] EAA was induced with 200 μL of a 1:1 emulsion of 75 μg proteolipid protein (PLP) and 6 mg/mL Mycobacterium tuberculosis H37RA in complete Freund's adjuvant (CFA). The 200 μL injection was divided among four sites that drained into the auxiliary and inguinal lymphnodes. Pertussis toxin was used as a co-adjuvant and was administered i.p. at 200 ng/mouse on day zero and day two post immunization. Groups were treated with 0.1 mg of compound in 100 μL vehicle, or with vehicle alone, q.d. po (oral gavage) starting at clinical onset of disease and continuing through to day 30 post immunization. […] Clinical grading was carried out by an observer unaware of the treatment: 0=no illness, 1=flaccid tail, 2=moderate paraparesis, 3=severe paraparesis, 4=moribund state, 5=death.

[2] = test system: human MG-63 osteosarcoma cell line; assay: reversal of dexamethasone effects in MG-63 osteoblasts; format: cell-based; conditions: for reversal of the decrease in osteoprotegerin synthesis: 30 nM dexamethasone, compound concentration stated with each value (17α-ethynyl triol: 1 nM)
[3] = LPS stimulation, 50% of the compound's maximum inhibition, averages, read-out: IC50

## C[C@]12CC[C@H](O)C[C@@H]1CC[C@@H]1[C@@H]2CC[C@]2(C)C(=O)[C@H](I)C[C@@H]12 [16α-iodoepiandrosterone]
NF-κB; [3]
  IC50: 1.9 nM

## 3α,17α-ethynylandrostane-3α/β,17β-diol
NF-κB; [3]
  IC50: 0.2 nM

## C[C@]12CC[C@H]3[C@@H](CCC4C[C@H](O)CC[C@@]43C)[C@@H]1C[C@H](O)[C@@H]2O (stereo partly drawn) [3α,16β,17β-trihydroxyandrostane]
[1]; 0.001 mg s.c. 24 h and 1 h before carrageenan-λ
  number of neutrophils relative to negative control group (set at 100%): 95%
[1]; 0.01 mg s.c. 24 h and 1 h before carrageenan-λ
  number of neutrophils relative to negative control group (set at 100%): 50%
[1]; 0.1 mg s.c. 24 h and 1 h before carrageenan-λ
  number of neutrophils relative to negative control group (set at 100%): 42%

## C[C@]12CC[C@H](O)C[C@@H]1CC[C@@H]1[C@@H]2CC[C@]2(C)C(=O)[C@@H](Br)C[C@@H]12 [16β-bromoepiandrosterone]
NF-κB
  maximum inhibition of NF-κB: 100%
NF-κB; [3]
  IC50: 600 nM

## C[C@]12CC[C@H]3[C@@H](CC=C4C[C@](O)(C(F)(F)C(F)(F)F)CC[C@@]43C)[C@@H]1CC[C@@H]2O [3α-pentafluoroethylandrost-5-ene-3β,17β-diol]
NF-κB
  maximum inhibition of NF-κB: 50%

## C[C@]12CC[C@H](O)C[C@@H]1CC[C@@H]1[C@@H]2CC[C@]2(C)[C@@H](O)C(=NO)C[C@@H]12 [5α-androstane-3β,17β-diol-16-oxime]
EAE
  course of EAE compared to vehicle-treated mice: very similar to that observed in the vehicle-treated mice

## CC12CCC(O)CC1=CC(O)C1C2CCC2(C)C1CCC2(O)C(F)(F)F (stereo not drawn) [3β,7β,17β-trihydroxy-17α-trifluoromethylandrost-5-ene]
[2]
  reversal of the decrease in osteoprotegerin synthesis: normal or basal osteoprotegerin levels at 1 μM compound

## Cc1cc(C)c(/C=C2\C(=O)Nc3ccccc32)[nH]1 [SU5416, Z-3-[(2,4-dimethylpyrrol-5-yl)methylidenyl]-2-indolinone, reference compound]
EAE
  course of EAE compared to vehicle-treated mice: very similar to that observed in the vehicle-treated mice

## C#C[C@]1(O)CC[C@H]2[C@@H]3CCC4=CC(=O)CC[C@]4(C)[C@H]3CC[C@@]21C [17α-ethynylandrost-4-ene-3-one-17β-ol]
NF-κB
  maximum inhibition of NF-κB: 80%

## C[C@]12CC[C@H](O)CC1=C[C@H](O)[C@@H]1[C@@H]2CC[C@@]2(C)[C@H]1CC[C@]2(C)O [3β,7β,17β-trihydroxy-17α-methylandrost-5-ene]
[2]
  reversal of the decrease in osteoprotegerin synthesis: normal osteoprotegerin levels at 10 nM

## C[C@]12CC[C@H]3[C@@H](CC=C4C[C@](O)(C(F)(F)F)CC[C@@]43C)[C@@H]1CC[C@@H]2O [3α-trifluoromethylandrost-5-ene-3β,17β-diol]
EAE
  course of EAE compared to vehicle-treated mice: significantly improved course of EAE
  mean cumulative score, treatment period: 11.2±4.8
  mean cumulative score, follow-up period: 10.8±10.3

## C#C[C@@]1(O)CC[C@H]2[C@@H]3[C@@H](O)C=C4C[C@@H](O)CC[C@]4(C)[C@H]3CC[C@@]21C [17β-ethynylandrost-5-ene-3β,7β,17α-triol]
EAE
  mean cumulative score, treatment period: 14.9±17.6
  mean cumulative score, follow-up period: 18.4±20.6
EAE; end of the follow-up period
  EAE incidence: 85.7%
EAE; end of the treatment period
  EAE incidence: 57.1%

## CC12CCC(O)CC1=CC(=O)C1C2CCC2(C)C1CCC2(C)O (stereo not drawn) [3β,17β-dihydroxy-7-oxo-17α-methylandrost-5-ene]
[2]
  reversal of the decrease in osteoprotegerin synthesis: increased osteoprotegerin levels at 100 nM

## C[C@]12CC[C@H]3[C@@H](C(=NO)C=C4C[C@@H](O)CC[C@@]43C)[C@@H]1CC[C@@H]2O [androst-5-ene-3β,17β-diol-7-oxime]
[2]
  reversal of the decrease in osteoprotegerin synthesis: partially reversed the decrease in osteoprotegerin

## C[C@]12CC[C@H]3[C@@H]([C@H](O)C=C4C[C@@H](O)CC[C@@]43C)[C@@H]1C[C@@H](O)[C@@H]2O [androst-5-ene-3β,7α,16α,17β-tetrol]
[2]
  reversal of the decrease in osteoprotegerin synthesis: near normal osteoprotegerin levels at 10 nM

## C[C@]12CCCCC1=CC[C@@H]1[C@@H]2CC[C@]2(C)C(=O)[C@H](F)C[C@@H]12 [16α-fluoroandrost-5-ene-17-one]
NF-κB; Homo sapiens, THP-1
  IC50: 0.03 nM

## C[C@]12CC[C@H]3[C@@H](CCC4=C[C@H](O)CC[C@@]43C)[C@@H]1CC[C@@H]2O [3α,17β-dihydroxyandrost-4-ene]
[2]; similar protocols
  dexamethasone induced 11β-HSD mRNA: decrease
  dexamethasone-induced suppression of IL-8 and IL-6: statistically significant reversal

## C[C@]12CC[C@H](O)CC1=CC[C@@H]1[C@@H]2CC[C@@]2(C)[C@H]1CC[C@@]2(O)C(F)(F)F [17α-trifluoromethylandrost-5-ene-3β,17β-diol]
EAE
  course of EAE compared to vehicle-treated mice: significantly improved course of EAE
